US20040009485A1, “Cellular arrays for the identification of altered gene expression” (priority 2002, published 2004)

Assays:
SOS regulon gene fusions = experiment: Stress response of SOS regulon luxCDABE gene fusions (nalidixic acid); assay type: cell-based, E. coli; details: for Nalidixic acid response ratio: 5 μg/ml, 110 minutes, LB, treated/untreated
Method: To test the stress responses, one or two single colonies of each selected strain were used to inoculate 5.0 ml of LB medium containing 150 μg/ml of ampicillin. These cultures were grown overnight at 37° C. then diluted by adding 50 μl or 100 μl of the overnight culture into 10.0 ml of fresh LB medium (without ampicillin) and grown with agitation at 37° C. until the culture was in exponential phase with readings on a Klett-Summerson colorimeter containing the red filter of between 10 and 40. These actively growing cultures were immediately used to initiate a stress response experiment by adding 50 μl of cultures to 50 μl of LB medium containing various concentrations of chemical in the wells a 96 well luminometer plate. This division of the actively growing culture at the time of chemical addition ensured identical populations were present when the stress was imposed. Light production was measured in a Dynex ML3000 luminometer at 37° C. The dimensionless units of light production, relative light units (RLU), are obtained by comparison with the light reading from an internal light-emitting diode. The cycle mode of the ML3000 luminometer, similar to previous descriptions (Van Dyk et al., Appl. Environ. Microbiol. 60:1414-120) was used.
The ability of these promoter-luxCDABE fusions to report activation of the SOS stress response was tested using nalidixic acid, a known, potent chemical inducer. The final concentrations of nalidixic acid were 1, 5, 25, and 125 μg/ml for all but strain DPD2293, which was tested at 80, 40, 20, 10, 5, 2.5, and 1.25 μg/ml.
Specificity of responses was tested by measuring the effect of ethanol on these SOS regulon gene fusions.

[1] = test system: Luxarray 0.5 reporter clones; experiment: High density Luxarray 0.5 nalidixic acid perturbation (cooled CCD camera); assay type: cell-based, E. coli; details: 5 μg/ml, 0-8 hr
Method: The clones of Luxarray 0.5 were used to print arrays as described above at a 4×4 density. That is to say that each single spot as in FIG. 3 was replicated 16× in a 4×4 subarray. […] Arrays were printed in triplicate from fresh overnight cultures onto membranes on plates containing LB media. […] Cultures were replaced at 37° C. to continue growing. Images were collected for each array every two hours from 0-8 hr after relocation using a cooled CCD camera (FluorChem 8000: f0.85 lens, 2 min exposure. AlphaInnotech). Spot intensity was determined using ArrayVision™ (Imaging Research, Toronto, Canada).
In contrast, light production from the strain carrying the lac promoter fusion as well as several strains carrying other promoter fusions was decreased.

## CCn1cc(C(=O)O)c(=O)c2ccc(C)nc21 [Nalidixic acid, nalidixic acid]
SOS regulon gene fusions; dinF fusion, DPD2247 (lux-a.pk085.a5)
  Nalidixic acid response ratio: 2.2
SOS regulon gene fusions; dinG fusion, DPD2248 (lux-a.pk0024.f5)
  Nalidixic acid response ratio: 2.0
SOS regulon gene fusions; dinP fusion, DPD2249 (lux-a.pk055.a3)
  Nalidixic acid response ratio: 5.0
SOS regulon gene fusions; each of the eight SOS fusion strains, at least three concentrations (1-125 μg/ml; DPD2293 1.25-80 μg/ml)
  bioluminescence compared with untreated culture: increased bioluminescence
SOS regulon gene fusions; recA fusion, DPD2250 (lux-a.pk022.d4)
  Nalidixic acid response ratio: 1.8
SOS regulon gene fusions; recA fusion, DPD2251 (lux-a.pk085.b5)
  Nalidixic acid response ratio: 2.8
SOS regulon gene fusions; ruvA fusion, DPD2293 (lux-a.pk058.f2)
  Nalidixic acid response ratio: 4.6
SOS regulon gene fusions; uvrA fusion, DPD2253 (lux-a.pk01.b6)
  Nalidixic acid response ratio: 1.4
SOS regulon gene fusions; uvrD fusion, DPD2254 (lux-a.pk052.b6)
  Nalidixic acid response ratio: 1.2
[1]; five documented DNA damage-responsive reporter constructs
  reporter expression, high density array: upregulation of expression
[1]; lac promoter fusion and several other promoter fusions
  light production, high density array: decreased
